Data on twelve molecules can be found in publication PMC2199082 (The Journal of Experimental Medicine, 1997).

For data set [1], the system named is murine calvaria. In words: Calvarial bone resorption assay. It is filed as cell-based, mouse. The following applies: for osteolytic activity of peptides in the calvarial assay: graded concentrations, three separate experiments.
Data set [2] has as its system human osteoblast-like cell line MG63. Put plainly: Osteoblast proliferation. The data set is classed as cell-based. The following applies: subconfluent MG63, 24 h, DMEM 2% FCS, [3H]thymidine last 6 h.
The subject of data set [3] is MG63 cells.

No end group written: not given here.

Consider “1–58: synthetic Mt cpn10 peptide, residues 1–58 (MAKVNIKPLEDKILVQANEAETTTASGLVIPDTAKEKPQEGTVVAVGPGRWDEDGEKR; also: dimer; UniProt P9WPE5 1-58, looked up, fragment)”, for which, in data set [1], the “osteolytic activity of peptides in the calvarial assay” value is “inactive”.

On to “46–99: synthetic Mt cpn10 peptide, residues 46–99 (VGPGRWDEDGEKRIPLDVAEGDTVIYSKYGGTEIKYNGEEYLILSARDVLAVVS; UniProt P9WPE5 46-99, looked up, fragment)”, for which the “osteolytic activity of peptides in the calvarial assay” value in data set [1] is “inactive”.

As for “51–99: synthetic Mt cpn10 peptide, residues 51–99 (WDEDGEKRIPLDVAEGDTVIYSKYGGTEIKYNGEEYLILSARDVLAVVS; UniProt P9WPE5 51-99, looked up, fragment)”, the “osteolytic activity of peptides in the calvarial assay” value in data set [1] is “inactive”.

Turning to “54–99: synthetic Mt cpn10 peptide, residues 54–99 (DGEKRIPLDVAEGDTVIYSKYGGTEIKYNGEEYLILSARDVLAVVS; UniProt P9WPE5 54-99, looked up, fragment)”, the “osteolytic activity of peptides in the calvarial assay” value in data set [1] was “inactive”.

Consider “59–99: synthetic Mt cpn10 peptide, residues 59–99 (IPLDVAEGDTVIYSKYGGTEIKYNGEEYLILSARDVLAVVS; UniProt P9WPE5 59-99, looked up, fragment)”, for which the “osteolytic activity of peptides in the calvarial assay” value in data set [1] was “inactive”.

For the molecule “65–99: synthetic Mt cpn10 peptide, residues 65–99 (EGDTVIYSKYGGTEIKYNGEEYLILSARDVLAVVS; UniProt P9WPE5 65-99, looked up, fragment)”, in data set [1], the “osteolytic activity of peptides in the calvarial assay” value is reported as “reproducible osteolytic activity”.

Consider GGIVLTGSAAA [GroES residues 23–33], for which the “osteolytic activity of peptides in the calvarial assay” value in data set [1] is on record as “osteolytic activity”.

TTTASGLVIPDTAKE [21–35]: the “osteolytic activity of peptides in the calvarial assay” value in data set [1] is “osteolytic activity”.

“calcitonin (CGNLSTCMLGTYTQDFNKFHTFPQTAIGVGAP; ends and bridges not checked; cysteine pairing not given here; UniProt P01258 85-116, looked up) [reference compound]”: the “effect on r-Mt cpn10-induced bone resorption” value in data set [1] (calcitonin at 10 ng/ml, results not shown) is “blocked”.

Regarding “lipoarabinomannan [Mt LAM, reference compound]”, the osteolytic activity entry in data set [1] (added at a concentration of 1 μg/ml) is recorded as “no osteolytic activity”.

As for polymyxin B [reference compound], in data set [1], the “effect of addition on bone resorbing activity of r-Mt cpn10” value is reported as “no effect”; the “effect of addition on bone resorbing activity of the Mt sonicate” value is recorded as “no effect”; the “effect on osteolytic activity of peptides 26–99 and 65–99” value is “no inhibitory effects”.

B1: r-Mt cpn10: recombinant Mycobacterium tuberculosis chaperonin 10 expressed in Escherichia coli, purified by reversed-phase HPLC to >97% purity (protein, UniProt P9WPE5 2-100, looked up)
Co-chaperonin GroES: AKVNIKPLEDKILVQANEAETTTASGLVIPDTAKEKPQEGTVVAVGPGRWDEDGEKRIPLDVAEGDTVIYSKYGGTEIKYNGEEYLILSARDVLAVVSK
modifications: recombinant, expressed in E. coli
For the molecule B1, the “concentrations causing significant inhibition of cell proliferation” value in data set [2] is listed as at least 1 nM. The “cytotoxicity (lactate dehydrogenase release)” value in data set [3] is on record as “not due to cytotoxicity”. Further, in data set [1], the “concentration at which osteolytic activity (calcium release) was noted” value is 1 ng/mL; the “concentration at which osteolytic activity was noted, molar equivalent” value is recorded as 100 pmol; the “stimulation of bone resorption, measured as calcium release into the tissue culture medium” value is “dose-dependent stimulation of calcium release”.
